# In patent US20230218589A1, “COMPOUND FOR PREVENTION OR TREATMENT OF A SKIN CANCER OR SKIN PRECANCER” (UNIQUEST PTY LTD, priority 2020, published 2023):
# “Also recorded” adds a separate entry of the source.
# How the values were obtained:
# [1] = tested on: CD8+ T cells; assay: Mouse T cell proliferation assay (Cell Trace Violet, 7AAD, flow cytometry); type: cell-based; conditions: 3 days
# Method: Spleens, inguinal and brachial lymph nodes were harvested from two C57BL/6 mice in sterile conditions and placed in sterile Phosphate Buffered Saline (PBS), then cells were dissociated into a single cell suspension by gently crushing all organs through a 70 μm cell strainer. Cells were washed through the strainer into a 50 mL falcon tube with 5 mL sterile ACK lysis buffer (0.15 M NH4Cl, 1 mM KHCO3 pH 7.3). Cells were incubated for 3 min at room temperature to lyse red blood cells. 5 mL sterile PBS was added to the cell suspension and cells were centrifuged at 350 g for 10 min at room temperature. Supernatant was removed and the cell pellet resuspended in 10 mL sterile PBS. Cells were centrifuged again at 350 g for 10 min at room temperature. The supernatant was removed and the cells were resuspended in 1 mL of sterile PBS.
# 1 μμL of 5 mM CellTrace Violet (Thermo Fisher) was added to the cell suspension and the mixture was swirled to ensure even dispersion of the dye. Cells were incubated for 20 min in the dark at room temperature. 5 mL of pre-warmed complete RPMI medium [(RPMI 1640 (Gibco), 10% heat inactivated FBS (Gibco), 1× Penicillin/Streptomycin/L-Glutamine, 100 μM 2-Mercaptoethanol] was added to the cell suspension and incubated in the dark at room temperature for 5 min. Cells were centrifuged at 350 g for 5 min at room temperature. Supernatant was removed without disrupting the cell pellet. Cells were resuspended in 1 mL complete RPMI medium.
# Cells were counted using a haemocytometer and cells were adjusted to 2×10^6 cells/mL using complete RPMI medium. 500 μL of cell suspension was added to wells in a 48-well plate (Nunc) so the final number of cells per well was 1×10^6.
# A vial of Dynabeads Mouse T Activator CD3/CD28 beads (4×10^7 beads/mL) was vortexed for 30 sec and 625 μL of beads was aliquoted into a 5 mL polypropylene FACS tube (Sarstedt). 1 mL of complete RPMI medium was added to the beads and mixed by pipetting. The FACS tube was placed in a StemCell Technologies EasySep magnet for 1 minute and supernatant was discarded. The tube was removed from the magnet and washed beads were resuspended in 625 μL of complete RPMI medium. 12.5 μL of bead suspension (5×10^5 beads) was added into appropriate wells of the 48-well plate with cell suspensions to induce T cell activation.
# Cells were incubated in a humidified incubator at 37° C. with 5% CO2 for 1 hour before Compound 1 (or vehicle only) was diluted in complete RPMI medium and added to the appropriate wells at the concentration required. The final volume in all wells was 1 mL. Cells were incubated for 3 days in a humidified incubator at 37° C. with 5% CO2.
# Cells were harvested from each well by resuspending cells with a pipette and transferring to polypropylene FACS tubes. […]
# [2] = tested on: T lymphocytes; conditions: cited from earlier work
Compound,"rescue of CD8+ T cell proliferation in the presence of tacrolimus ([1]; 0.3 μM, 1 μM and 3 μM Compound 1 with 0.6 ng/mL tacrolimus)","effect on CD8+ T cell viability in the absence of tacrolimus ([1]; Compound 1 0.3-3 μM, no tacrolimus, 7AAD)","effect on CD8+ T cell proliferation in the absence of tacrolimus ([1]; Compound 1 0.3-3 μM, no tacrolimus)","EC50 ([2]; cultured with tacrolimus 1.2 nM, C57B1/6 mouse spleen T lymphocytes, read-out: ED50, concentration required to inhibit tritiated thymidine uptake of T cells by 50%) [µM]","CD8+ T cell proliferation compared to the vehicle control ([1]; 0.6 ng/mL tacrolimus, CD3/CD28 beads)",inhibition of T cell proliferation ([2]; tacrolimus 1.2 nM) [%]
"CC[C@@H]1/C=C(\C)[C@@H](O)[C@H](C)C[C@H](OC)[C@H]2O[C@@](O)(C(=O)C(=O)N3CCCC[C@H]3C(=O)O[C@H](/C(C)=C/[C@@H]3CC[C@@H](O)[C@H](OC)C3)[C@H](C)[C@@H](O)CC1=O)[C@H](C)C[C@@H]2OC [Compound 1, 17-Ethyl-1,14,20-trihydroxy-12-[2′-(4″-hydroxy-3″-methoxycyclohexyl)-1′-methylvinyl]-23,25-dimethoxy-13,19,21,27-tetramethyl-11,28-dioxa-4-azatricyclo-[22.3.1.0^4,9]octacos-18-ene-2,3,10,16-tetraone]",dose dependent rescue; also recorded: dose dependently and significantly rescued,no significant effect,no significant effect,< 50,,
"C=CC[C@@H]1/C=C(\C)C[C@H](C)C[C@H](OC)[C@H]2O[C@@](O)(C(=O)C(=O)N3CCCC[C@H]3C(=O)O[C@H](/C(C)=C/[C@@H]3CC[C@@H](O)[C@H](OC)C3)[C@H](C)[C@@H](O)CC1=O)[C@H](C)C[C@@H]2OC [tacrolimus, reference compound]",,,,,inhibited,100
